What all share (type): biochemical
The target in one test is T1, MMP-1 (Homo sapiens, UniProt P03956).
T1 construct: human recombinant fibroblast collagenase (truncated, mw=18,828)
T1 sequence (P03956 100-269 limits assumed): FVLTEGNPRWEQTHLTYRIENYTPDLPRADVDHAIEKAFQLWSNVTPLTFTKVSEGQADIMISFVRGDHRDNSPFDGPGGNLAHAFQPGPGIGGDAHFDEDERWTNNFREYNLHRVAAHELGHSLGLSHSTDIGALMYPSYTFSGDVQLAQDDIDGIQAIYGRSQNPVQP
In words: In Vitro Collagenase Assay. Particulars: human recombinant fibroblast collagenase, fluorogenic peptide substrate. The source says:
In Vitro Collagenase Assay
This assay was based on the cleavage of a peptide substrate ((Dnp-Pro-Cha-Gly-Cys(Me)-His-Ala-Lys(NMa)-NH2), available from Peptide International, Inc.) by collagenase releasing the fluorescent NMa group which was quantitated on the fluorometer as disclosed in Bickett et al., "A High Throughput Fluorogenic Substrate for Interstitial Collagenase (MMP-1) and Gelatinase (MMP-9)", Anal. Biochem., 212:58-64, (1993). Dnp quenches the NMa fluorescence in the intact substrate.
The assay was run in HCBC assay buffer (50 mM HEPES, pH 7.0, 5 mM Ca^+2, 0.02% Brij, 0.5% Cysteine), with human recombinant fibroblast collagenase (truncated, mw=18,828, from Wyeth-Ayerst Research, Radnor, PA). The substrate was dissolved in methanol and stored frozen in 1 mM aliquots. Collagenase was stored frozen in buffer in 25 µM aliquots. In conducting the assay, the substrate was dissolved in HCBC buffer to a final concentration of 10 µM and collagenase to a final concentration of 5 nM. The compounds being examined were dissolved in methanol, DMSO, or HCBC. The methanol and DMSO were diluted in HCBC to < 1.0%. The compounds were added to a 96 well plate containing enzyme and the reaction was started by the addition of substrate.
The reaction was read (excitation 340 nm, emission 444 nm) for 10 min. and the increase in fluorescence over time was plotted as a linear line. The slope of the line was calculated representing the reaction rate. The linearity of the reaction rate was confirmed (r^2 >0.85). The mean (x ± sem) of the control rate was calculated and compared for statistical significance (p <0.05) with drug-treated rates using Dunnett's multiple comparison test. Dose-response relationships were generated using multiple doses of drug and IC50 values with 95% CI were estimated using linear regression.

A further test concerns the target T2, MMP-9 (Homo sapiens, UniProt P14780).
T2 construct: from tissue; host or cells: human neutrophils
As to the kind of experiment: In Vitro Gelatinase Assay. The settings on record: human neutrophil gelatinase B, thiopeptide substrate. On the procedure:
In Vitro Gelatinase Assay
The assay is based on the cleavage of the thiopeptide substrate ((Ac-Pro-Leu-Gly(2-mercapto-4-methyl-pentanoyl)-Leu-Gly-OEt), available from Bachem Bioscience) by the enzyme gelatinase, releasing the substrate product which reacts colorimetrically with DTNB ((5,5'-dithio-bis(2-nitro-benzoic acid)). This assay is disclosed in Weingarten et al., "Spectrophotometric Assay for Vertebrate Collegenase", Anal. Biochem., 147:437-440, (1985). The enzyme activity is measured by the rate of the color increase.
The thiopeptide substrate was made up fresh as a 20 mM stock in 100% DMSO and the DTNB was dissolved in 100% DMSO as a 100 mM stock and stored in the dark at room temperature. The substrate and the DTNB were diluted together to 1 mM with substrate buffer (50 mM HEPES, pH 7.5, 5 mM CaCl2) before use. The stock of human neutrophil gelatinase B was diluted with assay buffer (50 mM HEPES, pH 7.5, 5 mM CaCl2, 0.02% Brij) to a final concentration of 0.15 nM.
The assay buffer, enzyme, DTNB/substrate (500 µM final concentration) and vehicle or inhibitor were added to a 96 well plate (total reaction volume of 200µl) and the increase in color was monitored spectrophotometrically for 5 minutes at 405 nm on a plate reader.
The increase in OD405 was plotted and the slope of the line was calculated. The slope represents the reaction rate. The linearity of the reaction rate was confirmed (r^2 >0.85) and the mean (x ± sem) of the control rate was calculated and compared for statistical significance (p <0.05) with drug-treated rates using Dunnett's multiple comparison test. Dose-response relationships were generated using multiple doses of drug and IC50 values with 95% CI were estimated using linear regression (IPRED, HTB).

A further test addresses T3, TACE (Homo sapiens, UniProt P78536).
T3 construct: purchased Immunex
As to the kind of experiment: Procedure for Measuring TACE Inhibition. The settings on record: TACE (Immunex), fluorescent peptidyl substrate. How it is done:
The plates were incubated for 10 minutes at room temperature. The reaction was initiated by addition of a fluorescent peptidyl substrate (final concentration 100 µM) to each well with shaking on a shaker for 5 sec. The reaction was read (excitation 340 nm, emission 420 nm) for 10 min. and the increase in fluorescence over time was plotted as a linear line. The slope of the line was calculated and this represents the reaction rate. […] The mean (x±sem) of the control rate was calculated and compared for statistical significance (p<0.05) with drug-treated rates using Dunnett's multiple comparison test.

The next test deals with MMP-13 (Homo sapiens, UniProt P45452). In words: MMP-13 inhibition (Table 1, no method described).

T2 sequence (P14780 94-707): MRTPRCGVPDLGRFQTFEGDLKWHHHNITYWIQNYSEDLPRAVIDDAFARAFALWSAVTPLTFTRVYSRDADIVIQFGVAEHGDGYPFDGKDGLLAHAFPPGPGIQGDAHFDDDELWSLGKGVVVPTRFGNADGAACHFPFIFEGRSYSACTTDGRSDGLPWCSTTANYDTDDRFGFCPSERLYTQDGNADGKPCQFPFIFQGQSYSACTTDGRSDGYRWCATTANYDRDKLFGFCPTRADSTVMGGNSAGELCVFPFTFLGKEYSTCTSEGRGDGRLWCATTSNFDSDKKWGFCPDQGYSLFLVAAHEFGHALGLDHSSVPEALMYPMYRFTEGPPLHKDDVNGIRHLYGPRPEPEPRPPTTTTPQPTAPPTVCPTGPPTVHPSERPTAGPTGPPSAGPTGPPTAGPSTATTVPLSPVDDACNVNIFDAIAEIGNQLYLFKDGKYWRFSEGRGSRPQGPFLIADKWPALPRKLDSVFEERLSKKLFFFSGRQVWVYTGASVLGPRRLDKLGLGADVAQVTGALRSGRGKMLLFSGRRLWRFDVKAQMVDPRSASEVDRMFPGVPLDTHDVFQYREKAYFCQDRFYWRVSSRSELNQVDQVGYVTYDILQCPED
T3 sequence (P78536 215-824): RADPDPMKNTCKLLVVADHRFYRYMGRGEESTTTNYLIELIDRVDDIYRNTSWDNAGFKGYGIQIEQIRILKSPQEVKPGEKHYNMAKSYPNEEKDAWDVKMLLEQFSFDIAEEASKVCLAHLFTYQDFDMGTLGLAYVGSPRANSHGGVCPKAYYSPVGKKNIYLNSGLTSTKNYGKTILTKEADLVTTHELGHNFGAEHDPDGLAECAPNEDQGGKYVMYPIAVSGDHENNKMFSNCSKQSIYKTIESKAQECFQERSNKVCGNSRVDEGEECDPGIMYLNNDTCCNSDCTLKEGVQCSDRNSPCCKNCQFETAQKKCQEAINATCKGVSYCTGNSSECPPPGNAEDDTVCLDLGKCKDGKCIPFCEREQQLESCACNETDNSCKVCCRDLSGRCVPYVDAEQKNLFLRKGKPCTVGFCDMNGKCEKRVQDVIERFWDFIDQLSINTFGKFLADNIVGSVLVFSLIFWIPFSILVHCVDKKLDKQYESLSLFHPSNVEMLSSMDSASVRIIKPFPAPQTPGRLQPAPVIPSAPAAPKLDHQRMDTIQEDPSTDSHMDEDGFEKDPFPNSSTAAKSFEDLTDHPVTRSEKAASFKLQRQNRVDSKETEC

For the compound `CC#CCOc1ccc(S(=O)(=O)N2Cc3ccccc3N(C(=O)c3ccccc3)CC2C(=O)NO)cc1` (centres unmarked) [Example 3, 1-Benzoyl-4-(4-but-2-ynyloxybenzenesulfonyl)-2,3,4,5-tetrahydro-1H-[1,4]-benzodiazepine-3-carboxylic acid, hydroxyamide], the half-inhibitory concentration (IC50) was found to be 165 nM on MMP-1 and 36 nM on MMP-9.
As for `CC#CCOc1ccc(S(=O)(=O)N2Cc3ccccc3N(C(C)=O)CC2C(=O)NO)cc1` (centres unmarked) [Example 1, 1-Acetyl-4-(4-but-2-ynyloxbenzenesulfonyl)-2,3,4,5-tetrahydro-1H-[1,4]benzodiazepine-3-carboxylic acid, hydroxyamide], the IC50 on TACE was 16 nM; on MMP-1, 835 nM; on MMP-9 it was 228 nM; at MMP-13, 77 nM.
Taken in the same sequence, the figures for “4-(4-[4-Methoxybut-2-ynyloxy]benzenesulfonyl)-1-(3-pyridinylcarbonyl)-2,3,4,5-tetrahydro-1H-[1,4]benzodiazepine-3-carboxylic acid, hydroxyamide [Example 58]” were 10 nM, 841 nM, 33 nM and 29 nM.
As to “4-(4-But-2-ynyloxybenzene-sulfonyl)-1-methoxyacetyl-2,3,4,5-tetrahydro-1H-[1,4]benzodiazepine-3-carboxylic acid, hydroxyamide [Example 57]”, the IC50 on TACE worked out at 33 nM; on MMP-1 it was 125 nM; on MMP-9, 2 nM; against MMP-13, 7 nM.

These data come from patent publication EP1147095B1, “2, 3, 4, 5-TETRAHYDRO-1H-[1, 4] BENZODIAZEPINE-3-HYDROXAMIC ACIDS AS MATRIX METALLOPROTEINASE INHIBITORS” (Wyeth Holdings Corporation, priority 1999, dated 2000).
